The values below come from EPA's ToxValDB 9.5.

Data set [1] concerns Canidae. The settings on record: repeat dose other; inhalation; Dog Other.
The next data set deals with Cavia sp. The note with it: repeat dose other; inhalation.
Data set [2] has as its system Mus musculus.
Data set [3] has as its system Rattus norvegicus.
Another data set has as its system Macaca mulatta. The note with it: repeat dose other; oral.
Data set [4] concerns Oryctolagus sp.
The subject of data set [5] is Oryctolagus sp. The settings on record: oral.
The subject of data set [6] is Oryctolagus sp. The settings on record: M, reproductive.
Data set [7] deals with Mus musculus. The note with it: chronic; duration: 78 weeks; oral; diet; F; B6C3F1.
The subject of data set [8] is Canidae. The note with it: subchronic; duration: 7 weeks; oral; gavage; M/F; Beagle.
Another data set has as its system Cricetulus sp. The note with it: subchronic; duration: 13 weeks; inhalation; M/F; Hamster; increased hemolysis, abnormal rbc morphology, and increased spleen weight.
In data set [9] the test system is Mus musculus. The note with it: subchronic, inhalation.
In data set [10] the test system is Rattus norvegicus. The settings on record: subchronic; duration: 13 weeks; inhalation; M/F; increased hemolysis, abnormal rbc morphology, and increased spleen weight.
The subject of a further data set is Cavia porcellus. The settings on record: repeat dose other; oral; Guinea Pig.
A further data set has as its system Coturnix japonica. The note with it: repeat dose other; oral.
Another data set has as its system Neovison sp. The settings on record: repeat dose other; oral; Mink.
Data set [11] has as its system Rattus norvegicus. The settings on record: oral, M/F.
In data set [12] the test system is Rattus norvegicus. The settings on record: chronic; duration: 2 years; oral; diet; M/F; Sherman Wistar; neurological.
The subject of data set [13] is Rattus norvegicus. The note with it: oral.
The test system of data set [14] is Homo sapiens. The settings on record: clinical; duration: 20 days; oral; capsule; Blood: Decreased cholinesterase activity.
In data set [15] the test system is Oryctolagus sp. The settings on record: acute; dermal; New Zealand.
Data set [16] concerns Rattus norvegicus. The data set is described as follows: LD100; higher = less toxic. The note with it: acute; oral.
Data set [17] relates to Homo sapiens. The note with it: clinical, oral.
For data set [18], the system named is Mus musculus. The settings on record: acute; duration: 1 days; oral; M; DD; hepatic.
Data set [19] relates to Oryctolagus sp. The note with it: developmental; inhalation; intermittent; Fetus: Toxicity.
Where [20] appears, read: subchronic, duration: 13 weeks, inhalation, M, testicular effects.
Setting [21] is: duration: 12 weeks, Increased hemolysis, increased spleen weight, and impaired compensatory erythropoiesis.
Setting [22] is: duration: 13 weeks, M/F, increased hemolysis, abnormal rbc morphology, and increased spleen weight.

For the compound `C#C` [Ethyne], the NOAEL (usually the highest tested level that showed no adverse finding) is 852000 mg/m3 in the data set on Canidae [1]; 852000 mg/m3 with Cavia sp.; 852000 mg/m3 in the data set with Mus musculus [2] (repeat dose other, inhalation); 852000 mg/m3 in the data set on Rattus norvegicus [3] (repeat dose other, inhalation).
Turning to `Clc1cc(Cl)cc(-c2cc(Cl)cc(Cl)c2)c1` [Aroclor 1248], in the data set on Macaca mulatta, the lowest observed adverse effect level (LOAEL) (usually the lowest tested level that showed an adverse finding) was determined as 0.1 mg/kg-day and the NOAEL amounted to 0.01 mg/kg-day.
With `ClCC(Br)CBr` (configuration not stated) [1,2-Dibromo-3-chloropropane], the LOAEL in the data set on Oryctolagus sp. [4] (setting [20]) was determined as 9.4 mg/m3; in the data set on Oryctolagus sp. [6] (subchronic, duration: 10 weeks, oral, drinking water, Dutch belted), 1.88 mg/kg-day. Further, the NOAEL in the data set with Oryctolagus sp. [4] (setting [20]) worked out at 0.94 mg/m3; in the data set with Oryctolagus sp. [5] (subchronic, duration: 10 weeks, drinking water, M, Dutch-belted, Endocrine), 0.7 mg/kg-day; in the data set on Oryctolagus sp. [6] (chronic, duration: 14 weeks, inhalation, New Zealand), 0.967 mg/m3.
In the data set with Mus musculus [7], `Cc1ccc([N+](=O)[O-])cc1N` [C.I. Azoic Diazo Component 12] had an LOAEL of 207 mg/kg-day.
With `O=P(c1ccccc1)(c1ccccc1)c1ccccc1` [Triphenylphosphine oxide], in the data set with Canidae [8], the LOAEL was determined as 50 mg/kg-day.
On to `[AsH3]` [Arsine], for which the LOAEL in the data set with Cricetulus sp., with Mus musculus [9] (setting [21]), in the data set on Mus musculus [9] (setting [22]) and in the data set with Rattus norvegicus [10] was 1.6 mg/m3 each time. For the same compound, the NOAEL in the data set on Cricetulus sp., with Mus musculus [9] (setting [21]), with Mus musculus [9] (setting [22]) and in the data set on Rattus norvegicus [10] was 0.08 mg/m3 each time.
Take `O=[N+]([O-])[O-].[K+]` [Potassium nitrate]: in the data set on Cavia porcellus, the LOAEL was found to be 1130 mg/kg-day and the no-observed-adverse-effect level (NOAEL) is 507 mg/kg-day.
As for `ClC1C(Cl)C(Cl)C(Cl)C(Cl)C1Cl` (configuration not stated) [1,2,3,4,5,6-Hexachlorocyclohexane], the LOAEL in the data set on Coturnix japonica was 2.25 mg/kg-day; in the data set with Neovison sp., 0.14 mg/kg-day. Moreover, the NOAEL in the data set with Coturnix japonica was 0.56 mg/kg-day; with Neovison sp., 0.014 mg/kg-day.
`CCOP(=S)(OCC)Oc1nc(Cl)c(Cl)cc1Cl` [Chlorpyrifos]: the NOEL with Rattus norvegicus [11] (short-term, duration: 28 days, gavage, Wistar, Body Weight Changes: Weight gain decrease + Food Consumption: decrease + Blood Chemistry: T-Cho decrease TG decrease ALP increase Ch E …) turned out to be 0.1 mg/kg-day; with Rattus norvegicus [13] (Hershberger, duration: 10 days, gavage, Sprague-Dawley, inactive + Negative + Negative + anti-androgenic + negative) it was 2 mg/kg-day; in the data set on Homo sapiens [14] it was 0.03 mg/kg-day. In the data set on Rattus norvegicus [12], this compound returned an NOAEL of 0.1 mg/kg-day. This compound registered an LEL in the data set on Rattus norvegicus [13] (uterotrophic, duration: 56 days, Active) of 0.1 mg/kg-day.
`CC(O)C(=O)O` (configuration not stated) [Lactic acid]: the no-observed-adverse-effect level (NOAEL) in the data set with Mus musculus [2] (reproduction developmental, duration: 10 days, oral, gavage, CD1, generation: F1) was at least 570 mg/kg-day; in the data set with Mus musculus [2] (reproduction developmental, duration: 10 days, oral, gavage, F, CD1), at least 570 mg/kg-day. For the same compound, the LD50 (in general, the dose expected to kill half of the subjects tested) in the data set on Oryctolagus sp. [15] was above 2000 mg/kg. For the same compound, in the data set with Rattus norvegicus [3] (acute, Inhalation, Fischer 344), the median lethal concentration (LC50) (commonly the concentration that kills 50% of the test population) was above 7.94 µg/mL. This compound gave an LOAEL in the data set with Rattus norvegicus [3] (subchronic, duration: 13 weeks, dermal, F, Sprague-Dawley) of 886 mg/kg-day. The same compound yielded an LD100 in the data set with Rattus norvegicus [16] of 11200 mg/kg.
`[Cl-].[Rb+]` [Rubidium chloride (RbCl)] yielded an LOAEL in the data set on Homo sapiens [17] (duration: 3 weeks, capsule, F) of 5.3 mg/kg-day.
With `Cc1ccc(O)cc1` [p-Cresol], the NOAEL in the data set on Rattus norvegicus [11] (short-term, duration: 28 days, diet, Fischer 344, Clinical Observation: Hunched posture Rough hair coat + Body Weight Changes: Mean body weight decrease + Food Consumption: decrease + …) stood at 1000 ppm; in the data set with Rattus norvegicus [11] (subchronic, duration: 13 weeks, gavage, Sprague-Dawley, Deaths + Clinical Observation: Lethargy Tremors Convulsions Coma: + Body Weight Changes: Mean body weight decrease, Body weight gain …), 50 mg/kg-day; in the data set on Oryctolagus sp. [5] (developmental, duration: 12 days, gavage, F, New Zealand, developmental) it was 5 mg/kg-day.
As for `Oc1ccc(O)cc1` [Hydroquinone], in the data set with Rattus norvegicus [11] (subchronic, duration: 13 weeks, gavage, Fischer 344, Deaths + Clinical Observation: Tremors Convulsions + Body Weight Changes: decrease + Absolute Organ Weight: Liver increase + Relative Organ …), the NOEL was 25 mg/kg-day. In the data set on Homo sapiens [17] (duration: 5 months, M/F, Hematologic, Urinary), the NOAEL worked out at 4.3 mg/kg-day.
For the compound `S=C=S` [Carbon disulfide], the NOEL came out at 11 mg/kg-day in the data set with Oryctolagus sp. [4] (developmental, oral, M/F, fetal toxicity/ malformations) and 11 mg/kg-day with Oryctolagus sp. [19]. The LOAEL in the data set on Mus musculus [18] is 3 mg/kg-day.
